{"source": "ChEMBL document CHEMBL1629642", "about": "“In vitro efficacy of ST246 against smallpox and monkeypox” (Antimicrob Agents Chemother, 2009)", "key": {"[1]": {"test_system": "Variola virus", "test": "Antiviral activity against Variola virus NEP73-175 infected in african green monkey BSC-40 cells at 0.015 uM by IHC staining-based comet tail reduction assay", "assay_type": "functional, organism-based"}, "[2]": {"test_system": "Variola virus", "test": "Antiviral activity against Variola virus SUD47-juba infected in african green monkey BSC-40 cells at 0.005 uM uM by IHC staining-based plaque reduction assay", "assay_type": "functional, organism-based"}, "[3]": {"test_system": "Variola virus", "test": "Antiviral activity against Variola virus BSH74-sol infected in african green monkey BSC-40 cells at 0.05 to 5 uM assessed as reduction in virus-induced cytopathic effect", "assay_type": "functional, organism-based"}, "[4]": {"test_system": "Variola virus", "test": "microbe, parasite or virus in culture", "conditions": "NEP73-175, BSC-40"}, "[5]": {"test_system": "Variola virus", "test": "Antiviral activity against Variola virus SLN68-258 infected in african green monkey BSC-40 cells assessed as reduction in viral plaque formation at 0.015 uM uM by IHC staining-based plaque reduction assay", "assay_type": "functional"}, "[6]": {"test_system": "Variola virus", "test": "Antiviral activity against Variola virus BSH74-sol infected in african green monkey BSC-40 cells at 0.005 uM by IHC staining-based comet tail reduction assay", "assay_type": "functional, organism-based"}, "[7]": {"test_system": "Monkeypox virus", "test": "Antiviral activity against Monkeypox virus V81-I-179 infected in african green monkey BSC-40 cells at 0.05 to 0.5 uM by IHC staining-based comet tail reduction assay", "assay_type": "functional, organism-based"}, "[8]": {"test_system": "Variola virus", "test": "Antiviral activity against Variola virus BSH74-sol infected in african green monkey BSC-40 cells at 0.015 uM by IHC staining-based comet tail reduction assay", "assay_type": "functional, organism-based"}, "[9]": {"test_system": "Variola virus", "test": "Antiviral activity against Variola virus SUD47-juba infected in african green monkey BSC-40 cells at 0.005 uM by IHC staining-based comet tail reduction assay", "assay_type": "functional, organism-based"}, "[10]": {"test_system": "Variola virus", "test": "Antiviral activity against Variola virus BRZ66-39 infected in african green monkey BSC-40 cells at 0.005 uM by IHC staining-based comet tail reduction assay", "assay_type": "functional, organism-based"}, "[11]": {"test_system": "Variola virus", "test": "Antiviral activity against Variola virus BSH74-sol infected in african green monkey BSC-40 cells at 0.005 uM assessed as reduction in virus-induced cytopathic effect", "assay_type": "functional, organism-based"}, "[12]": {"test_system": "Variola virus", "test": "Antiviral activity against Variola virus SUD47-juba infected in african green monkey BSC-40 cells at 0.05 to 5 uM assessed as reduction in virus-induced cytopathic effect", "assay_type": "functional, organism-based"}, "[13]": {"test_system": "Variola virus", "test": "Antiviral activity against Variola virus BRZ66-39 infected in african green monkey BSC-40 cells at 0.005 uM uM by IHC staining-based plaque reduction assay", "assay_type": "functional, organism-based"}, "[14]": {"test_system": "Monkeypox virus", "test": "Antiviral activity against Monkeypox virus V78-I-3945 infected in african green monkey BSC-40 cells assessed as reduction in virus-induced cytopathic effect at 0.05 to 5 uM", "assay_type": "functional, organism-based"}, "[15]": {"test_system": "Variola virus", "test": "Antiviral activity against Variola virus SOM77-ali infected in african green monkey BSC-40 cells at 0.05 to 5 uM assessed as reduction in virus-induced cytopathic effect", "assay_type": "functional, organism-based"}, "[16]": {"test_system": "Monkeypox virus", "test": "Antiviral activity against Monkeypox virus V77-I-823 infected in african green monkey BSC-40 cells assessed as reduction in virus-induced cytopathic effect at 0.05 to 5 uM", "assay_type": "functional, organism-based"}, "[17]": {"test_system": "Monkeypox virus", "test": "Antiviral activity against Monkeypox virus V77-I-823 infected in african green monkey BSC-40 cells at 0.005 uM uM by IHC staining-based plaque reduction assay", "assay_type": "functional, organism-based"}, "[18]": {"test_system": "Monkeypox virus", "test": "Antiviral activity against Monkeypox virus V1979-I-005 infected in african green monkey BSC-40 cells at 0.05 to 0.5 uM by IHC staining-based comet tail reduction assay", "assay_type": "functional, organism-based"}, "[19]": {"test_system": "Cowpox virus", "test": "Antiviral activity against Cowpox virus infected in african green monkey Vero cells assessed as reduction in virus-induced cytopathic effect", "assay_type": "functional, organism-based"}, "[20]": {"test_system": "Monkeypox virus", "test": "Antiviral activity against Monkeypox virus V1979-I-005 infected in african green monkey BSC-40 cells assessed as reduction in virus-induced cytopathic effect at 0.05 to 5 uM", "assay_type": "functional, organism-based"}, "[21]": {"test_system": "Variola virus", "test": "Antiviral activity against Variola virus BSH74-sol infected in african green monkey BSC-40 cells at 0.005 uM uM by IHC staining-based plaque reduction assay", "assay_type": "functional, organism-based"}, "[22]": {"test_system": "Monkeypox virus", "test": "Antiviral activity against Monkeypox virus 2003-USA-039 infected in african green monkey BSC-40 cells assessed as reduction in virus-induced cytopathic effect at 0.015 uM", "assay_type": "functional, organism-based"}, "[23]": {"test_system": "Monkeypox virus", "test": "Antiviral activity against Monkeypox virus V1979-I-005 infected in african green monkey BSC-40 cells assessed as reduction in viral plaque formation at 0.015 uM uM by IHC staining-based plaque reduction assay", "assay_type": "functional"}, "[24]": {"test_system": "Variola virus", "test": "Antiviral activity against Variola virus SLN68-258 infected in african green monkey BSC-40 cells at 0.05 to 0.5 uM by IHC staining-based plaque reduction assay", "assay_type": "functional, organism-based"}, "[25]": {"test_system": "Monkeypox virus", "test": "Antiviral activity against Monkeypox virus 2003-USA-039 infected in african green monkey BSC-40 cells assessed as reduction in virus-induced cytopathic effect", "assay_type": "functional, organism-based", "conditions": "2003-USA-039, BSC-40"}, "[26]": {"test_system": "Variola virus", "test": "Antiviral activity against Variola virus SUD47-juba infected in african green monkey BSC-40 cells at 0.05 to 0.5 uM by IHC staining-based comet tail reduction assay", "assay_type": "functional, organism-based"}, "[27]": {"test_system": "Monkeypox virus", "test": "Antiviral activity against Monkeypox virus V1979-I-005 infected in african green monkey BSC-40 cells at 0.05 to 0.5 uM by IHC staining-based plaque reduction assay", "assay_type": "functional, organism-based"}, "[28]": {"test_system": "Variola virus", "test": "microbe, parasite or virus in culture", "conditions": "BSH74-sol, BSC-40"}, "[29]": {"test_system": "Variola virus", "test": "Antiviral activity against Variola virus SOM77-ali infected in african green monkey BSC-40 cells at 0.005 uM by IHC staining-based comet tail reduction assay", "assay_type": "functional, organism-based"}, "[30]": {"test_system": "Variola virus", "test": "Antiviral activity against Variola virus infected in african green monkey vero cells assessed as reduction in virus-induced cytopathic effect", "assay_type": "functional, organism-based"}, "[31]": {"test_system": "Variola virus", "test": "Antiviral activity against Variola virus SOM77-ali infected in african green monkey BSC-40 cells at 0.015 uM assessed as reduction in virus-induced cytopathic effect", "assay_type": "functional, organism-based"}, "[32]": {"test_system": "Variola virus", "test": "Antiviral activity against Variola virus SOM77-ali infected in african green monkey BSC-40 cells at 0.005 uM assessed as reduction in virus-induced cytopathic effect", "assay_type": "functional, organism-based"}, "[33]": {"test_system": "Monkeypox virus", "test": "Antiviral activity against Monkeypox virus V81-I-179 infected in african green monkey BSC-40 cells assessed as reduction in virus-induced cytopathic effect at 0.005 uM", "assay_type": "functional, organism-based"}, "[34]": {"test_system": "Variola virus", "test": "Antiviral activity against Variola virus SUD47-juba infected in african green monkey BSC-40 cells at 0.05 to 0.5 uM by IHC staining-based plaque reduction assay", "assay_type": "functional, organism-based"}, "[35]": {"test_system": "Monkeypox virus", "test": "Antiviral activity against Monkeypox virus 2003-USA-039 infected in african green monkey BSC-40 cells at 0.005 uM by IHC staining-based comet tail reduction assay", "assay_type": "functional, organism-based"}, "[36]": {"test_system": "Monkeypox virus", "test": "Antiviral activity against Monkeypox virus V77-I-823 infected in african green monkey BSC-40 cells at 0.05 to 0.5 uM by IHC staining-based comet tail reduction assay", "assay_type": "functional, organism-based"}, "[37]": {"test_system": "Variola virus", "test": "Antiviral activity against Variola virus SOM77-ali infected in african green monkey BSC-40 cells at 0.005 uM uM by IHC staining-based plaque reduction assay", "assay_type": "functional, organism-based"}, "[38]": {"test_system": "Variola virus", "test": "Antiviral activity against Variola virus SUD47-juba infected in african green monkey BSC-40 cells at 0.005 uM assessed as reduction in virus-induced cytopathic effect", "assay_type": "functional, organism-based"}}, "note": "The source made the active and inactive calls. No cut-off for these calls is given here."}
{"smiles": "O=C(NN1C(=O)[C@@H]2[C@@H]3C=C[C@@H]([C@H]4C[C@@H]34)[C@@H]2C1=O)c1ccc(C(F)(F)F)cc1", "note": "[TECOVIRIMAT]", "values": [{"measurement": "Activity", "setting": "[1]", "value": "Active"}, {"measurement": "Activity", "setting": "[2]", "value": "inactive"}, {"measurement": "Activity", "setting": "[3]", "value": "Active"}, {"measurement": "EC50", "setting": "[4]", "value": 21, "unit": "nM"}, {"measurement": "inhibition (INH)", "setting": "[5]", "value": 50, "unit": "%"}, {"measurement": "Activity", "setting": "[6]", "value": "inactive"}, {"measurement": "Activity", "setting": "[7]", "value": "Active"}, {"measurement": "Activity", "setting": "[8]", "value": "Active"}, {"measurement": "Activity", "setting": "[9]", "value": "inactive"}, {"measurement": "Activity", "setting": "[10]", "value": "inactive"}, {"measurement": "Activity", "setting": "[11]", "value": "inactive"}, {"measurement": "Activity", "setting": "[12]", "value": "Active"}, {"measurement": "Activity", "setting": "[13]", "value": "inactive"}, {"measurement": "Activity", "setting": "[14]", "value": "Active"}, {"measurement": "Activity", "setting": "[15]", "value": "Active"}, {"measurement": "Activity", "setting": "[16]", "value": "Active"}, {"measurement": "Activity", "setting": "[17]", "value": "inactive"}, {"measurement": "Activity", "setting": "[18]", "value": "Active"}, {"measurement": "Activity", "setting": "[19]", "value": "Active"}, {"measurement": "Activity", "setting": "[20]", "value": "Active"}, {"measurement": "Activity", "setting": "[21]", "value": "inactive"}, {"measurement": "Activity", "setting": "[22]", "value": "Active"}, {"measurement": "inhibition (INH)", "setting": "[23]", "value": 50, "unit": "%"}, {"measurement": "Activity", "setting": "[24]", "value": "Active"}, {"measurement": "EC50", "setting": "[25]", "value": 36, "unit": "nM"}, {"measurement": "Activity", "setting": "[26]", "value": "Active"}, {"measurement": "Activity", "setting": "[27]", "value": "Active"}, {"measurement": "EC50", "setting": "[28]", "value": 28, "unit": "nM"}, {"measurement": "Activity", "setting": "[29]", "value": "inactive"}, {"measurement": "Activity", "setting": "[30]", "value": "Active"}, {"measurement": "Activity", "setting": "[31]", "value": "Active"}, {"measurement": "Activity", "setting": "[32]", "value": "inactive"}, {"measurement": "Activity", "setting": "[33]", "value": "inactive"}, {"measurement": "Activity", "setting": "[34]", "value": "Active"}, {"measurement": "Activity", "setting": "[35]", "value": "inactive"}, {"measurement": "Activity", "setting": "[36]", "value": "Active"}, {"measurement": "Activity", "setting": "[37]", "value": "inactive"}, {"measurement": "Activity", "setting": "[38]", "value": "inactive"}]}
